# Assay results taken from US12269831B2, “Modulators of cystic fibrosis transmembrane conductance regulator” (Vertex Pharmaceuticals Incorporated, priority 2020, dated 2025).
# Like-named read-outs stand apart in the source and are kept apart here.
# Key:
# [1] = 14-membered ring
# [2] = target: T1, CFTR (F508del/MF-HBE cells) (Homo sapiens, UniProt P13569, DEL508-508); assay: Ussing chamber assay of CFTR-mediated short-circuit currents (potentiator identification); assay type: cell-based; conditions: CFTR-mediated Isc, 18-24 h incubation at 37° C. with 10 μM (14S)-8-[3-(2-{dispiro[2.0.2.1]heptan-7-yl}ethoxy)-1H-pyrazol-1-yl]-... corrector, 20% human serum
# T1 construct: human bronchial epithelial (HBE) cells derived from CF subjects heterozygous for F508del and a minimal function CFTR mutation (F508del/MF-HBE); endogenous in cells; host or cells: primary human bronchial epithelial (HBE) cells from CF subjects, genotype F508del/minimal function
# T1 sequence (P13569 with tags, fused parts or gaps DEL508-508): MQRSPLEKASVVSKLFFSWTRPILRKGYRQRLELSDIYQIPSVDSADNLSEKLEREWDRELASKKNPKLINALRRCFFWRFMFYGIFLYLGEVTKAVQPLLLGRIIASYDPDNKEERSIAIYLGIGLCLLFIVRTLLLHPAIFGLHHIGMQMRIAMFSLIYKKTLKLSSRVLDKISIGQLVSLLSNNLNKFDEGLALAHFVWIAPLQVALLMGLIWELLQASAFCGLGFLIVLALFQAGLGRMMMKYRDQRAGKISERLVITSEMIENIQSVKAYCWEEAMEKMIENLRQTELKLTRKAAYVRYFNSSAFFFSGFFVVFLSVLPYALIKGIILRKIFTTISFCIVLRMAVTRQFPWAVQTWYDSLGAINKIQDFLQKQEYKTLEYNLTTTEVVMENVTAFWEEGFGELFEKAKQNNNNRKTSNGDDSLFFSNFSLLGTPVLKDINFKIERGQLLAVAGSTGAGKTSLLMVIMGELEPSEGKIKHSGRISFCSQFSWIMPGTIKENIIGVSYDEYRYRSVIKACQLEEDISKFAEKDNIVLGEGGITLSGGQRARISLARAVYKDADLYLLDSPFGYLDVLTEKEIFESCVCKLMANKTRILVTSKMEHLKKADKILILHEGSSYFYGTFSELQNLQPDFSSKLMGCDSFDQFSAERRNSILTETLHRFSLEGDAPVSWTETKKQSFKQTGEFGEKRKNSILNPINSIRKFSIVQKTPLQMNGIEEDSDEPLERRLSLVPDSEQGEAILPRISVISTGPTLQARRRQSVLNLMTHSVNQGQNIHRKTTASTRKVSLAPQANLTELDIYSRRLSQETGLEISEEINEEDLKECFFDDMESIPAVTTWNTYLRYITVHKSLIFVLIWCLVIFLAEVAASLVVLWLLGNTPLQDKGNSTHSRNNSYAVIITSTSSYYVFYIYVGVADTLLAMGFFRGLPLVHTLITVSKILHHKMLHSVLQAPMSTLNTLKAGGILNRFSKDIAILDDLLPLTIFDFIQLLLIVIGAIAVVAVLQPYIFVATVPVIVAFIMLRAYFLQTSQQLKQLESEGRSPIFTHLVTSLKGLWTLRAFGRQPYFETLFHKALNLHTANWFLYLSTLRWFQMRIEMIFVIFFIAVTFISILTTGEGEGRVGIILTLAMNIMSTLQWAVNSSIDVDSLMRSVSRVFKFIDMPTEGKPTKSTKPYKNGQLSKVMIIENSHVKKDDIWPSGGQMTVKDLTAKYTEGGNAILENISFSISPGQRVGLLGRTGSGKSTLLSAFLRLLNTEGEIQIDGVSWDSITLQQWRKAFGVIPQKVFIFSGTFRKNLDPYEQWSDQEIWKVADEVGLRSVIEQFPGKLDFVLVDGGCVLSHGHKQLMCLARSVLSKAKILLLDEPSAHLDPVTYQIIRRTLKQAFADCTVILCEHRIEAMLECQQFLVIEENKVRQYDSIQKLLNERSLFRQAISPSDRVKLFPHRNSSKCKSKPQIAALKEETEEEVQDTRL
# Experimental: Ussing Chamber Assay of CFTR-Mediated Short-Circuit Currents
# Ussing chamber experiments were performed using human bronchial epithelial (HBE) cells derived from CF subjects heterozygous for F508del and a minimal function CFTR mutation (F508del/MF-HBE) and cultured as previously described (Neuberger T, Burton B, Clark H, Van Goor F Methods Mol Biol 2011:741:39-54). After four days the apical media was removed, and the cells were grown at an air liquid interface for >14 days prior to use.
# To isolate the CFTR-mediated short-circuit (Isc) current, F508del/MF-HBE grown on Costar® Snapwell™ cell culture inserts were mounted in an Ussing chamber and the transepithelial ISC was measured under voltage-clamp recording conditions (Vhold=0 mV) at 37° C. The basolateral solution contained (in mM) 145 NaCl, 0.83 K2HPO4, 3.3 KH2PO4, 1.2 MgCl2, 1.2 CaCl2, 10 Glucose, 10 HEPES (pH adjusted to 7.4 with NaOH) and the apical solution contained (in mM) 145 NaGluconate, 1.2 MgCl2, 1.2 CaCl2, 10 glucose, 10 HEPES (pH adjusted to 7.4 with NaOH) and 30 μM amiloride to block the epithelial sodium channel. Forskolin (20 μM) was added to the apical surface to activate CFTR, followed by apical addition of a CFTR inhibitor cocktail consisting of BPO, GlyH-101 and CFTR inhibitor 172 (each at 20 μM final assay concentration) to specifically isolate CFTR currents. The CFTR-mediated Isc (μA/cm^2) for each condition was determined from the peak forskolin response to the steady-state current following inhibition.
# Identification of Potentiator Compounds
# The activity of the CFTR potentiator compounds on the CFTR-mediated Isc was determined in Ussing chamber studies as described above. The F508del/MF-HBE cell cultures were incubated with the potentiator compounds at a range of concentrations in combination with 10 μM (14S)-8-[3-(2-{dispiro[2.0.2.1]heptan-7-yl}ethoxy)-1H-pyrazol-1-yl]-12,12-dimethyl-2λ^6-thia-3,9,11,18,23-pentaazatetracyclo[17.3.1.111,14.05,10]tetracosa-1(22),5,7,9,19(23),20-hexaene-2,2,4-trione for 18-24 hours at 37° C. and in the presence of 20% human serum. The concentration of potentiator compounds and (14S)-8-[3-(2-{dispiro[2.0.2.1]heptan-7-yl}ethoxy)-1H-pyrazol-1-yl]-12,12-dimethyl-2λ^6-thia-3,9,11,18,23-pentaazatetracyclo[17.3.1.111,14.05,10]tetracosa-1(22),5,7,9,19(23),20-hexaene-2,2,4-trione used during the 18-24 hours incubations was kept constant throughout the Ussing chamber measurement of the CFTR-mediated Isc to ensure compounds were present throughout the entire experiment. The efficacy and potency of the putative F508del potentiators was compared to that of the known Vertex potentiator, ivacaftor (N-[2,4-bis(1,1-dimethylethyl)-5-hydroxyphenyl]-1,4-dihydro-4-oxoquinoline-3-carboxamide).
structure (smiles),measurement,setting,value
O=[N+]([O-])c1cc(C(F)(F)F)c2nc1-c1nnc(o1)[C@@](OCc1ccccc1)(C(F)(F)F)CCC=CCC(C1CC1)O2 (mixture of isomers),"ring closure, isolated yield","[1]; from C=CCC[C@@](OCc1ccccc1)(c1nnc(-c2nc(OC(CC=C)C3CC3)c(C(F)(F)F)cc2[N+](=O)[O-])o1)C(F)(F)F, rcm bond, Zhan-1B, DCE, 1.6 mM, 70.0 °C, 2.25 h",59%
C[C@H]1Oc2nc(c(NC(=O)OC(C)(C)C)cc2C(F)(F)F)C2=NN=C(O2)[C@@](OCc2ccccc2)(C(F)(F)F)CC=CCC1OCc1ccccc1 (mixture of isomers),"ring closure, isolated yield","[1]; from C=CCC(OCc1ccccc1)[C@@H](C)Oc1nc(-c2nnc([C@@](CC=C)(OCc3ccccc3)C(F)(F)F)o2)c(NC(=O)OC(C)(C)C)cc1C(F)(F)F, rcm bond, Zhan-1B, DCE, 6.94 mM, 70.0 °C, 48.0 h",56%
C[C@@H]1CCC=CC(F)(F)C(OCc2ccccc2)C2=NN=C(O2)c2nc(c(C(F)(F)F)cc2[N+](=O)[O-])O1 (mixture of isomers),"ring closure, isolated yield","[1]; from C=CCC[C@@H](C)Oc1nc(-c2nnc(C(OCc3ccccc3)C(F)(F)C=C)o2)c([N+](=O)[O-])cc1C(F)(F)F, rcm bond, Grubbs II, DCE, 1.8 mM, 75.0 °C, 0.92 h",30%
CC(C)(C)OC(=O)N(C(=O)OC(C)(C)C)c1cc(C(F)(F)F)c2nc1-c1nnc(o1)[C@@](OCc1ccccc1)(C(F)(F)F)CCC=CC[C@@H](COCc1ccccc1)O2 (mixture of isomers),"ring closure, isolated yield","[1]; from C=CCC[C@@](OCc1ccccc1)(c1nnc(-c2nc(O[C@@H](CC=C)COCc3ccccc3)c(C(F)(F)F)cc2N(C(=O)OC(C)(C)C)C(=O)OC(C)(C)C)o1)C(F)(F)F, rcm bond, Zhan-1B, DCE, 2.78 mM, 60.0 °C, 5.5 h",45%
C[C@@H]1CC=CCC[C@](OCc2ccccc2)(C(F)(F)F)C2=NN=C(O2)c2nc(c(C(F)(F)F)cc2Cl)O1 (mixture of isomers),"ring closure, isolated yield","[1]; from C=CCC[C@@](OCc1ccccc1)(c1nnc(-c2nc(O[C@H](C)CC=C)c(C(F)(F)F)cc2Br)o1)C(F)(F)F, rcm bond, Zhan-1B, DCE, 2.2 mM, 60.0 °C, 2.0 h",47%
CC(C)(C)OC(=O)Nc1cc(C(F)(F)F)c2nc1-c1nnc(o1)[C@@](OCc1ccccc1)(C(F)(F)F)CC=CCCCO2 (mixture of isomers),"ring closure, isolated yield","[1]; from C=CCCCOc1nc(-c2nnc([C@@](CC=C)(OCc3ccccc3)C(F)(F)F)o2)c(NC(=O)OC(C)(C)C)cc1C(F)(F)F, rcm bond, Zhan-1B, DCE, 6.7 mM, 60.0 °C, 4.0 h",65%
C[C@@H]1CCCOCC(OCc2ccccc2)(C(F)(F)F)C2=NN=C(O2)c2nc(c(C(F)(F)F)cc2N(C(=O)OC(C)(C)C)C(=O)OC(C)(C)C)O1 (some centres unmarked),"ring closure, isolated yield","[1]; from C[C@H](O)CCCOCC(OCc1ccccc1)(c1nnc(-c2nc(O)c(C(F)(F)F)cc2N(C(=O)OC(C)(C)C)C(=O)OC(C)(C)C)o1)C(F)(F)F, ether bond, PPh3/DIAD, toluene, 6.1 mM, 6.0 h",59%
C[C@@H]1CCC=CC(O)C(OCc2ccccc2)(C(F)(F)F)C2=NN=C(O2)c2nc(c(C(F)(F)F)cc2N)O1 (mixture of isomers),"ring closure, isolated yield","[1]; from C=CCC[C@@H](C)Oc1nc(-c2nnc(C(OCc3ccccc3)(C(O)C=C)C(F)(F)F)o2)c(N)cc1C(F)(F)F, rcm bond, Zhan-1B, DCE, 3.1 mM, 70.0 °C, 3.5 h",76%
CC(C)C1CC=CCC[C@](OCc2ccccc2)(C(F)(F)F)C2=NN=C(O2)c2nc(c(C(F)(F)F)cc2N(C(=O)OC(C)(C)C)C(=O)OC(C)(C)C)O1 (mixture of isomers),"ring closure, isolated yield","[1]; from C=CCC[C@@](OCc1ccccc1)(c1nnc(-c2nc(OC(CC=C)C(C)C)c(C(F)(F)F)cc2N(C(=O)OC(C)(C)C)C(=O)OC(C)(C)C)o1)C(F)(F)F, rcm bond, Zhan-1B, DCE, 2.09 mM, 60.0 °C, 6.0 h",61%
CC(C)(C)OC(=O)N(C(=O)OC(C)(C)C)c1cc(C(F)(F)F)c2nc1-c1nnc(o1)[C@@](OCc1ccccc1)(C(F)(F)F)CCC=CC[C@H](COCc1ccccc1)O2 (mixture of isomers),"ring closure, isolated yield","[1]; from C=CCC[C@@](OCc1ccccc1)(c1nnc(-c2nc(O[C@H](CC=C)COCc3ccccc3)c(C(F)(F)F)cc2N(C(=O)OC(C)(C)C)C(=O)OC(C)(C)C)o1)C(F)(F)F, rcm bond, Zhan-1B, DCE, 3.72 mM, 60.0 °C, 2.5 h",46%
C[C@@H]1CCOCCC(OCc2ccccc2)(C(F)(F)F)C2=NN=C(O2)c2nc(c(C(F)(F)F)cc2N(C(=O)OC(C)(C)C)C(=O)OC(C)(C)C)O1 (some centres unmarked),"ring closure, isolated yield","[1]; from C[C@H](O)CCOCCC(OCc1ccccc1)(c1nnc(-c2nc(O)c(C(F)(F)F)cc2N(C(=O)OC(C)(C)C)C(=O)OC(C)(C)C)o1)C(F)(F)F, ether bond, PPh3/DIAD, toluene, 10.2 mM, 7.0 h",57%
CC(C)(C)OC(=O)Nc1cc(C(F)(F)F)c2nc1-c1nnc(o1)C(OCc1ccccc1)(C(F)(F)F)CC=CCc1ccccc1O2 (mixture of isomers),"ring closure, isolated yield","[1]; from C=CCc1ccccc1Oc1nc(-c2nnc(C(CC=C)(OCc3ccccc3)C(F)(F)F)o2)c(NC(=O)OC(C)(C)C)cc1C(F)(F)F, rcm bond, Grubbs II, DCE, 5.12 mM, 70.0 °C, 21.0 h",62%
C[C@H]1CC=CCC[C@](OCc2ccccc2)(C(F)(F)F)C2=NN=C(O2)c2nc(c(C(F)(F)F)cc2NC(=O)OC(C)(C)C)O1 (mixture of isomers),"ring closure, isolated yield","[1]; from C=CCC[C@@](OCc1ccccc1)(c1nnc(-c2nc(O[C@@H](C)CC=C)c(C(F)(F)F)cc2NC(=O)OC(C)(C)C)o1)C(F)(F)F, rcm bond, Hoveyda-Grubbs II, toluene, 5.08 mM, 100.0 °C, 1.0 h",22%
CC(C)(C)OC(=O)N(C(=O)OC(C)(C)C)c1cc(C(F)(F)F)c2nc1-c1nnc(o1)[C@@](OCc1ccccc1)(C(F)(F)F)CCC=CCC(Cc1ccc(F)cc1)O2 (mixture of isomers),"ring closure, isolated yield","[1]; from C=CCC[C@@](OCc1ccccc1)(c1nnc(-c2nc(OC(CC=C)Cc3ccc(F)cc3)c(C(F)(F)F)cc2N(C(=O)OC(C)(C)C)C(=O)OC(C)(C)C)o1)C(F)(F)F, rcm bond, Zhan-1B, DCE, 2.35 mM, 60.0 °C, 1.0 h",63%
CC1(C)CC=CC[C@](OCc2ccccc2)(C(F)(F)F)C2=NN=C(O2)c2nc(c(C(F)(F)F)cc2N(C(=O)OC(C)(C)C)C(=O)OC(C)(C)C)OC1 (mixture of isomers),"ring closure, isolated yield","[1]; from C=CCC(C)(C)COc1nc(-c2nnc([C@@](CC=C)(OCc3ccccc3)C(F)(F)F)o2)c(N(C(=O)OC(C)(C)C)C(=O)OC(C)(C)C)cc1C(F)(F)F, rcm bond, Zhan-1B, toluene, 2.2 mM, 110.0 °C, 4.0 h",10%
"C[C@@H]1CC2CC2CC[C@](O)(C(F)(F)F)C2=NN=C(O2)c2nc(c(C(F)(F)F)cc2N)O1 (single isomer, unassigned) [Compound 63]",EC50,[2],< 0.5 µM
"[2H]C1CC[C@](O)(C(F)(F)F)C2=NN=C(O2)c2nc(c(C(F)(F)F)cc2N)O[C@H](C)CC1[2H] (stereo partly drawn) [Compound 38, (6R,12R)-17-amino-9,10-dideuterio-12-methyl-6,15-bis(trifluoromethyl)-13,19-dioxa-3,4,18-triazatricyclo[12.3.1.12,5]nonadeca-1(18),2,4,14,16-pentaen-6-ol]",EC50,[2],< 0.5 µM
"Nc1cc(C(F)(F)F)c2nc1-c1nnc(o1)C(O)(C(F)(F)F)CCCCc1cc(F)cc(c1)O2 (single isomer, unassigned) [Compound 32, 20-amino-13-fluoro-6,18-bis(trifluoromethyl)-16,23-dioxa-3,4,21-triazatetracyclo[15.3.1.12,5.111,15]tricosa-1(21),2,4,11(22),12,14,17,19-octaen-6-ol]",EC50,[2],> 1 µM
"C[C@@H]1CCCCC[C@](O)(C(F)(F)F)C2=NN=C(O2)c2nc(c(C(F)(F)F)cc2N)O1 [Compound 11, (6R,12R)-17-amino-12-methyl-6,15-bis(trifluoromethyl)-13,19-dioxa-3,4,18-triazatricyclo[12.3.1.12,5]nonadeca-1(18),2,4,14,16-pentaen-6-ol]",EC50,[2],< 0.5 µM
"Nc1cc(C(F)(F)F)c2nc1-c1nnc(o1)[C@@](O)(C(F)(F)F)CCCCCC(Cc1ccc(F)cc1)O2 (single isomer, unassigned) [Compound 50]",EC50,[2],< 0.5 µM
